Laboratory results as given in US20240239788A1, “SMALL MOLECULE INHIBITORS OF KRAS G12D MUTANT” (Merck Sharp & Dohme LLC, priority 2021, published 2024).
Read-outs that look alike come from different tables or passages of the source.

Assays:
[1] = target: KRAS protein containing G12D mutation (Homo sapiens (Human), UniProt P01116, G12D); assay: SOS-catalyzed nucleotide exchange assay (GNE), TR-FRET; format: biochemical; settings: biotinylated KRAS G12D, SOS and GTP, 60-minute incubation
Protocol: Compounds are added to this complex and then after a 60-minute incubation time the mixture is treated with SOS and unlabeled GTP. Small molecule inhibitors stabilize the Bodipy-GDP complex whereas the untreated protein rapidly exchanges Bodipy-GDP for unlabeled GTP resulting in reduced TR-FRET signal.
This solution is referred to as biotinylated KRAS G12D stock solution.

[2] = target: KRAS G12D / Ras binding domain of C-RAF (Homo sapiens (Human), UniProt P01116, G12D); assay: RAS:RAF-RBD binding assay (cRaf), TR-FRET; settings: biotinylated KRAS G12D, GST-C-RAF RBD
Sequence of KRAS G12D / Ras binding domain of C-RAF (P01116 other isoform, or with tags, fused parts or gaps G12D (already in the parent)): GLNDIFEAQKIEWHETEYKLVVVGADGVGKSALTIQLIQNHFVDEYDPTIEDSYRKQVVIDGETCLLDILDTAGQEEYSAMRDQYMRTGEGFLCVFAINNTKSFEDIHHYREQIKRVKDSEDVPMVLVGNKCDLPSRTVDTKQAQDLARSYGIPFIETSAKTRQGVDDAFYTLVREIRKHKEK
Protocol: Compounds are added to KRAS and then after a 30-minute incubation time the RAF-RBD and detection antibodies are added. Small molecule inhibitors that block the interaction of c-RAF-RBD prevent generation of a TR-FRET signal.
Biotinylated KRAS G12D protein is diluted to 20 nM in assay buffer (20 mM HEPES pH 7.5, 150 mM sodium chloride, 10 mM magnesium chloride, and 0.01% Tween20).
Each test compound (10 mM stock in DMSO) is diluted in DMSO to make a 10-point, 3-fold dilution series in a 384-well low dead volume microplate (Labcyte, catalog #LP-0200).
Each well of the assay plate receives 5 μL of Biotinylated KRAS G12D assay solution and is incubated at room temperature for 30 minutes. Each well then receives 5 μL of 100 nM GST-C-RAF RBD protein and a 1:100 dilution of both anti-GST-d2 (Cisbio catalog #61GSTDLA) and Streptavidin-Tb cryptate (Cisbio catalog #610SATLA) in assay buffer and the plate is mixed and briefly centrifuged followed by a 60 minute incubation at room temperature.
The apparent effect as a function of compound concentration is fit to a four-parameter logistic equation.

[3] = tested on: AsPC-1 cells containing homozygous KRAS-G12D activating mutation; assay: Cellular phospho-ERK assay (Examples 1a-106); format: cell-based; settings: AsPC-1 cells, 2 hours, ratio of p-Erk vs total Erk, read-out: IC50 (nM) pERK (Cell)
Description: 5% CO? overnight. […] Assay plates were read on a EnVision Multimode Plate Reader (PerkinElmer) and the ratio of p-Erk vs total Erk in each well was used as the final readout.

Sequence of KRAS protein containing G12D mutation (P01116 other isoform, or with tags, fused parts or gaps G12D (already in the parent)): as above

Cc1cc(N)nc(-c2c(F)cc3c(N4CC5CCC(C4)N5)nc(OCC4(CN5CCOCC5)CC4)nc3c2F)c1C(F)(F)F [Ex. 87, 6-(4-(3.8-diazabicyclo[3.2.1]octan-3-yl)-6,8-difluoro-2-((1-(morpholinomethyl)cyclopropyl)methoxy)quinazolin-7-yl)-4-methyl-5-(trifluoromethyl)pyridin-2-amine]
IC50 [1]: 37.4 nM | IC50 ([2]; read-out: IC50 (nM) (cRaf)): 11400 nM | IC50 [3]: 1340 nM

COC1CC2CN(c3nc(OCC4(CN(C)C)CC4)nc4c(F)c(-c5cc(O)cc6ccccc56)c(Cl)cc34)CC1N2 [Example 26, 4-(6-chloro-2-((1-((dimethylamino)meth-yl)cyclo-propyl)methoxy)-8-fluoro-4-(R,R,6-methoxy-3,8-diazabi-cyclo[3.2.1]octan-3-yl)quinazolin-7-yl)naphthalen-2-ol]
IC50 [1]: 358 nM | IC50 ([2]; IC50 (nM) (cRaf)): 11800 nM | IC50 ([3]; Homo sapiens, ASPC1, 2 h): 10400 nM

CN(C)C[C@]1(COc2nc(N3CC4CCC(C3)N4)c3cc(Cl)c(-c4cc(O)cc5ccccc45)c(F)c3n2)CC1(F)F (atropisomer, axis not shown) [Example 11a, 4-(4-(3.8-diazabicyclo[3.2.1]octan-3-yl)-6-chloro-2-(((S)-1-((dimethylamino)methyl)-2,2-difluorocyclopropyl)methoxy)-8-fluoroquinazolin-7-yl)naphthalen-2-ol]
IC50 [1]: 24.1 nM | IC50 ([2]; read-out: IC50 (nM) (cRaf)): 4240 nM | IC50 [3]: 2080 nM

C#Cc1cccc2cc(O)cc(-c3c(F)cc4c(N5C[C@H]6CC[C@@](C)(C5)N6)nc(OCC5(CN6CC[C@@H](F)C6)CC5)nc4c3F)c12 (single isomer, unassigned) [103a]
IC50 [1]: 1.05 nM | IC50 ([2]; IC50 (nM) (cRaf)): 26.2 nM | IC50 [3]: 3.76 nM

C[C@]12CC[C@H](CN(c3nc(OC[C@@]45CCCN4C[C@H](F)C5)nc4c(F)c(-c5cc(O)cc6cccc(Cl)c56)c(F)cc34)C1)N2 [Ex. 89, 5-chloro-4-(6,8-difluoro-2-(((2R,7aS)-2-fluorotetrahydro-1H-pyrrolizin-7a(5H)-yl)methoxy)-4-((1S,5R)-1-methyl-3,8-diazabicyclo[3.2.1]octan-3-yl)quinazolin-7-yl)naphthalen-2-ol]
IC50 [1]: 0.565 nM | IC50 ([2]; IC50 (nM) (cRaf)): 31.8 nM | IC50 ([3]; Homo sapiens, ASPC1, 2 h): 46 nM

Cc1cc2[nH]ncc2c(-c2c(F)cc3c(N4CC5CCC(C4)N5)nc(OCC4(CN5CCOCC5)CC4)nc3c2F)c1C(F)(F)F [Ex 72, 4-((1-(((4-(3,8-diazabicyclo[3.2.1]octan-3-yl)-6,8-difluoro-7-(6-methyl-5-(trifluoromethyl)-1H-indazol-4-yl)quinazolin-2-yl)oxy)methyl)cyclopropyl)methyl)morpholine]
IC50 [1]: 30.8 nM | IC50 ([2]; IC50 (nM) (cRaf)): 7440 nM | IC50 ([3]; Homo sapiens, ASPC1, 2 h): 2500 nM

CN1C[C@H](F)C[C@H]1COc1nc(N2C[C@H]3CC[C@@](C)(C2)N3)c2cc(F)c(-c3cc(O)cc4ccccc34)c(F)c2n1 [Ex 70, 4-(6,8-difluoro-2-(((2S,4R)-4-fluoro-1-methylpyrrolidin-2-yl)methoxy)-4-((1S,5R)-1-methyl-3,8-diazabicyclo[3.2.1]octan-3-yl)quinazolin-7-yl)naphthalen-2-ol]
IC50 [1]: 43.5 nM | IC50 ([2]; IC50 (nM) (cRaf)): 5390 nM | IC50 ([3]; Homo sapiens, ASPC1, 2 h): 2330 nM

Cc1c(Cl)cc2[nH]ncc2c1-c1c(F)cc2c(N3CC4CCC(C3)N4)nc(OCC3(CN(C)C)CC3)nc2c1F [Example 58, 1-(1-(((4-(3,8-diazabicyclo[3.2.1]octan-3-yl)-7-(6-chloro-5-methyl-1H-indazol-4-yl)-6,8-difluoroquinazolin-2-yl)oxy)methyl)cyclopropyl)-N,N-dimethylmethanamine]
IC50 [1]: 256 nM | IC50 ([2]; IC50 (nM) (cRaf)): 45300 nM | IC50 ([3]; Homo sapiens, ASPC1, 2 h): 5900 nM

C[C@]12CC[C@H](CN(c3nc(OCC4(CN5CC[C@@H](F)C5)CC4)nc4c(F)c(-c5cc(O)cc6ccccc56)c(F)cc34)C1)N2 [Ex 81, 4-(6,8-difluoro-2-((1-(((R)-3-fluoropyrrolidin-1-yl)methyl)cyclopropyl)methoxy)-4-((1S,5R)-1-methyl-3,8-diazabicyclo[3.2.1]octan-3-yl)quinazolin-7-yl)naphthalen-2-ol]
IC50 [1]: 16.5 nM | IC50 ([2]; IC50 (nM) (cRaf)): 1980 nM | IC50 ([3]; Homo sapiens, ASPC1, 2 h): 467 nM

Cc1cc2[nH]ncc2c(-c2c(F)cc3c(N4C[C@H]5CC[C@@](C)(C4)N5)nc(OCC4(CN5CC[C@@H](F)C5)CC4)nc3c2F)c1C(F)(F)F (single isomer, unassigned) [Ex 80a]
IC50 [1]: 31.8 nM | IC50 ([2]; IC50 (nM) (cRaf)): 4050 nM | IC50 [3]: 737 nM

CN(C)CC1(COc2nc(N3CC4CCC(C3)N4)c3cc(Cl)c(-c4cc(O)c(F)c5ccccc45)c(F)c3n2)CC1 [Example 57, 4-(4-(3,8-diazabicyclo[3.2.1]octan-3-yl)-6-chloro-2-((1-((dimethylamino)methyl)cyclopropyl)methoxy)-8-fluoroquinazolin-7-yl)-1-fluoronaphthalen-2-ol]
IC50 [1]: 404 nM | IC50 ([2]; IC50 (nM) (cRaf)): 31500 nM | IC50 ([3]; Homo sapiens, ASPC1, 2 h): 6850 nM

Nc1ccc2c(F)ccc(-c3c(Cl)cc4c(N5CC6CCC(C5)N6)nc(OCC5(CN6CCOCC6)CC5)nc4c3F)c2n1 [Example 52, 8-(4-(3,8-diazabicyclo[3.2.1]octan-3-yl)-6-chloro-8-fluoro-2-((1-(morpholinomethyl)cyclopropyl)methoxy)quinazolin-7-yl)-5-fluoroquinolin-2-amine]
IC50 [1]: 132 nM | IC50 ([2]; IC50 (nM) (cRaf)): 3820 nM | IC50 ([3]; Homo sapiens, ASPC1, 2 h): 2560 nM

Cc1cc2[nH]ncc2c(-c2c(F)cc3c(N4C[C@H]5CC[C@@](C)(C4)N5)nc(OC[C@]4(CN(C)C)CC4(F)F)nc3c2F)c1C [Ex 82, 1-((1R)-1-(((7-(5,6-dimethyl-1H-indazol-4-yl)-6,8-difluoro-4-((1S,5R)-1-methyl-3,8-diazabicyclo[3.2.1]octan-3-yl)quinazolin-2-yl)oxy)methyl)-2,2-difluorocyclopropyl)-N,N-dimethylmethanamine]
IC50 [1]: 89.3 nM | IC50 ([2]; IC50 (nM) (cRaf)): 14800 nM | IC50 ([3]; Homo sapiens, ASPC1, 2 h): 2200 nM

Cc1cc2[nH]ncc2c(C2Cc3nc(OCC4(CN5CC[C@@H](F)C5)CC4)nc(N4C[C@H]5CC[C@@](C)(C4)N5)c3C(=O)N2)c1C(F)(F)F (single isomer, unassigned) [Ex. 98a]
IC50 [1]: 380 nM | IC50 ([2]; read-out: IC50 (nM) (cRaf)): 34200 nM | IC50 [3]: 7270 nM

COC1CC2CN(c3nc(OCC4(CN(C)C)CC4)nc4c(F)c(-c5cc(O)cc6ccccc56)c(F)cc34)CC1N2 [Example 24, 4-(2-((1-((dimethylamino)meth-yl)cyclopropyl)meth-oxy)-6,8-difluoro-4-(6-methoxy-3,8-di-azabicyclo[3.2.1]octan-3-yl)quinazolin-7-yl)naphthalen-2-olR,R,]
IC50 [1]: 280 nM | IC50 ([2]; read-out: IC50 (nM) (cRaf)): 10800 nM | IC50 [3]: 7110 nM

CN(C)CC1(COc2nc(N3C[C@@H]4CC[C@](C)(C3)N4)c3cc(F)c(-c4cc(O)cc5ccccc45)c(F)c3n2)CC1 [Example 20, 4-(2-((1-((dimethylamino)methyl)cyclopropyl)methoxy)-6,8-difluoro-4-((1R,5S)-1-methyl-3,8-diazabicyclo[3.2.1]octan-3-yl)quinazolin-7-yl)naphthalen-2-ol]
IC50 [1]: 117 nM | IC50 ([2]; IC50 (nM) (cRaf)): 14400 nM | IC50 ([3]; Homo sapiens, ASPC1, 2 h): 3500 nM

CN(C)CC1(COc2nc(N3C[C@H]4CC[C@@](C)(C3)N4)c3cc(F)c(-c4cc(O)cc5ccccc45)c(F)c3n2)CC1 [Example 21, 4-(2-((1-((dimethyl-amino)methyl)cyclo-propyl)methoxy)-6,8-difluoro-4-((1S,5R)-1-methyl-3,8-diazabicy-clo[3.2.1]octan-3-yl)quinazolin-7-yl)naphthalen-2-ol]
IC50 [1]: 14.4 nM | IC50 ([2]; IC50 (nM) (cRaf)): 1980 nM | IC50 ([3]; Homo sapiens, ASPC1, 2 h): 636 nM

Cc1cc2[nH]nc(C)c2c(-c2c(F)cc3c(N4C[C@H]5CC[C@@](C)(C4)N5)nc(OC[C@]4(CN(C)C)CC4(F)F)nc3c2F)c1Cl [Ex 79, 1-((1R)-1-(((7-(5-chloro-3,6-dimethyl-1H-indazol-4-yl)-6,8-difluoro-4-((1S,5R)-1-methyl-3,8-diazabicyclo[3.2.1]octan-3-yl)quinazolin-2-yl)oxy)methyl)-2,2-difluorocyclopropyl)-N,N-dimethylmethanamine]
IC50 [1]: 72.5 nM | IC50 ([2]; IC50 (nM) (cRaf)): 4410 nM | IC50 ([3]; Homo sapiens, ASPC1, 2 h): 1930 nM

Cc1cc2[nH]nc(C)c2c(-c2c(F)cc3c(N4C[C@H]5CC[C@@](C)(C4)N5)nc(OCC4(CN5CC[C@@H](F)C5)CC4)nc3c2F)c1C [Ex 85, 6,8-difluoro-2-((1-(((R)-3-fluoropyrrolidin-1-yl)methyl)cyclopropyl)methoxy)-4-((1S,5R)-1-methyl-3,8-diazabicyclo [3.2.1]octan-3-yl)-7-(3,5,6-trimethyl-1H-indazol-4-yl)quinazoline]
IC50 [1]: 255 nM | IC50 ([2]; IC50 (nM) (cRaf)): 18900 nM | IC50 ([3]; Homo sapiens, ASPC1, 2 h): 5620 nM

Cc1cc2[nH]ncc2c(C2Cc3nc(OC[C@]4(CN(C)C)CC4(F)F)nc(N4C[C@H]5CC[C@@](C)(C4)N5)c3C(=O)O2)c1C(F)(F)F (single isomer, unassigned) [Ex. 96b]
IC50 [1]: 3.31 nM | IC50 ([2]; IC50 (nM) (cRaf)): 637 nM | IC50 [3]: 657 nM

CC[C@H]1N[C@H]2CC[C@@H]1N(c1nc(OCC3(CN(C)C)CC3)nc3c(F)c(-c4cc(O)cc5ccccc45)c(Cl)cc13)C2 [Example 39, 4-(6-chloro-2-((1-((dimethylamino)methyl)cyclopropyl)methoxy)-4-((1S,4S,6R)-6-ethyl-2,5-diazabicyclo[2.2.2]octan-2-yl)-8-fluoroquinazolin-7-yl)naphthalen-2-ol]
IC50 [1]: 46.7 nM | IC50 ([2]; IC50 (nM) (cRaf)): 4670 nM | IC50 ([3]; Homo sapiens, ASPC1, 2 h): 3310 nM
